Data taken from patent US10428066B2, “Imidazo[4,5-C]pyridine and pyrrolo[2,3-C]pyridine derivatives as SSAO inhibitors” (PROXIMAGEN, LLC, priority 2013, dated 2019).

Assays:
[1] = molecular target: human ether a go-go related gene (hERG) K+ channel (Homo sapiens (Human), UniProt Q12809); test: hERG assay, IonWorks patch clamp electrophysiology; format: cell-based; conditions: Chinese Hamster Lung cell line stably expressing hERG, maximum assay concentration 11 uM
Procedure: Compounds of the invention were tested for inhibition of the human ether a go-go related gene (hERG) K^+ channel using IonWorks patch clamp electrophysiology. 8 Point concentration-response curves were generated on two occasions using 3-fold serial dilutions from the maximum assay concentration (11 uM). Electrophysiological recordings were made from a Chinese Hamster Lung cell line stably expressing the full length hERG channel. Single cell ion currents were measured in the perforated patch clamp configuration (100 ug/mL amphoterocin) at room temperature using an IonWorks Quattro instrument. The internal solution contained 140 mM KCl, 1 mM MgCl2, 1 mM EGTA and 20 mM HEPES and was buffered to pH 7.3. The external solution contained 138 mM NaCl, 2.7 mM KCl, 0.9 mM CaCl2, 0.5 mM MgCl2, 8 mM Na2HPO4 and 1.5 mM KH2PO4, and was buffered to pH 7.3. […] This sequence was repeated 5 times at a frequency of 0.25 Hz. Currents were measured from the tail step at the 5th pulse, and referenced to the holding current. Compounds were incubated for 6-7 min prior to a second measurement of the hERG signal using an identical pulse train. A minimum of 17 cells were required for each plC50 curve fit. A control compound (quinidine) was used (see Table 20 below).

[2] = molecular target: purified recombinantly expressed human SSAO (Homo sapiens (Human), UniProt Q16853); test: SSAO enzyme inhibition assay (HRP-coupled hydrogen peroxide detection or 14C-benzaldehyde detection, benzylamine substrate); format: biochemical; conditions: human recombinant SSAO, RT
Summary of the method: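 Two read-outs at room temperature, each after ~15 min enzyme–inhibitor pre-incubation: 14C-benzaldehyde from 40 uM labelled benzylamine with 10 ug/ml enzyme, 1 h, PBS; or HRP-coupled H2O2 detection using 100 uM benzylamine, 1 ug/ml enzyme, pH 7.4 phosphate, read kinetically 1-2 h. Four-parameter logistic IC50s.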

human ether a go-go related gene (hERG) K+ channel, sequence (Q12809 whole entry): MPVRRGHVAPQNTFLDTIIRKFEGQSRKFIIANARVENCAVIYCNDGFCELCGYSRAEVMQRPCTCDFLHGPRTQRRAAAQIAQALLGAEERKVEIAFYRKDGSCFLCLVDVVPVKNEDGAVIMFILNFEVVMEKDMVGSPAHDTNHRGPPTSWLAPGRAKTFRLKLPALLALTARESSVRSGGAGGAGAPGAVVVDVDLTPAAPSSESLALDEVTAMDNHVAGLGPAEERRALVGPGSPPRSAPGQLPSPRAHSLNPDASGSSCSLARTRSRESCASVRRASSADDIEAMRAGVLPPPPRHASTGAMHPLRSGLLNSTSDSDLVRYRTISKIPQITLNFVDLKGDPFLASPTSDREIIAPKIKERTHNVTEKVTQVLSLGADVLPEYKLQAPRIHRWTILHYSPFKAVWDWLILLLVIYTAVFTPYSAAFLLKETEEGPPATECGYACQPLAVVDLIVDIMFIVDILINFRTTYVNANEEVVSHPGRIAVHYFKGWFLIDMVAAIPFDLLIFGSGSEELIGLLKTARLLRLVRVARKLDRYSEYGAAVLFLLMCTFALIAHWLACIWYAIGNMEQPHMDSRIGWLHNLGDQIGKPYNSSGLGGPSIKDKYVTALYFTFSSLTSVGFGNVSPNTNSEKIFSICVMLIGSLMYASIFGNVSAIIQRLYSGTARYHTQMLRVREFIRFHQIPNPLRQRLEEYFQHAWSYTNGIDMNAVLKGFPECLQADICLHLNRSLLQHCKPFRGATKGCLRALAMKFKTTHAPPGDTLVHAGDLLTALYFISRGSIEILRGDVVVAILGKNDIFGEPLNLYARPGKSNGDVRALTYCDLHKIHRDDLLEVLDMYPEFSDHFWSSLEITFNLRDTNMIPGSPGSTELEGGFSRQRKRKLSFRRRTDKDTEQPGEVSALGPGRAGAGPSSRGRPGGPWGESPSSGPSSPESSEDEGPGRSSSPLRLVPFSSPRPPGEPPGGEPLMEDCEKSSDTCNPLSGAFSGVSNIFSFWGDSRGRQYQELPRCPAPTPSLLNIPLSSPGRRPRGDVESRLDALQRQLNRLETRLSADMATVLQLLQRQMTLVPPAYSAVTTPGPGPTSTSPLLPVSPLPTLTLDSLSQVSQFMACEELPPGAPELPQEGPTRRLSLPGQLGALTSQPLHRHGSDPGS
purified recombinantly expressed human SSAO, sequence (Q16853 29-763): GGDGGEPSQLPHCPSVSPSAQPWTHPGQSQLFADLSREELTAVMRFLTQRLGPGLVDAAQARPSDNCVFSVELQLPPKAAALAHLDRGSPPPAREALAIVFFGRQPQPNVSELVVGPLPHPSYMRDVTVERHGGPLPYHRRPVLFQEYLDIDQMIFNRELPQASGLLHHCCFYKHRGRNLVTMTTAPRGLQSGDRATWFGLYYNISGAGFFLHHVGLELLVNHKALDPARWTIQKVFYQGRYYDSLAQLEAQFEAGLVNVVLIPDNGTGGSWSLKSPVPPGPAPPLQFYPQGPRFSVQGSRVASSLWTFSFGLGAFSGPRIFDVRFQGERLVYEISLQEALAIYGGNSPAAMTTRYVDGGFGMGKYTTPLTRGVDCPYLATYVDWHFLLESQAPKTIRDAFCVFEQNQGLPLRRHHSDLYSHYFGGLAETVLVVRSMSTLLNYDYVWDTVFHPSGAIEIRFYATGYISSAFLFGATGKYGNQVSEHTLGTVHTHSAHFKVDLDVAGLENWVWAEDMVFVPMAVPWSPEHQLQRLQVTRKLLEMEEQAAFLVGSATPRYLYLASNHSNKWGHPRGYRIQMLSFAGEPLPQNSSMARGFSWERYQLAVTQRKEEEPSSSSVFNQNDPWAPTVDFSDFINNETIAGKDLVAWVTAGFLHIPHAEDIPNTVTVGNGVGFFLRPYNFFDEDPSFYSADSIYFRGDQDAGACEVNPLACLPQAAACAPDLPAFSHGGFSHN

Structure (SMILES)	IC50 [1]	IC50 [2]
Clc1ccc(-n2c(-c3ccncc3)cc3ccncc32)cc1 [Example 120, 4-[1-(4-Chlorophenyl)-1H-pyrrolo[2,3-c]pyridin-2-yl]pyridine]	1000 to 10000 nM	200 to 1200 nM
Clc1ccc(-n2c(-c3cccnc3)cc3ccncc32)cc1 [Example 122, 3-[1-(4-Chlorophenyl)-1H-pyrrolo[2,3-c]pyridin-2-yl]pyridine]	1000 to 10000 nM	50 to 200 nM
Clc1ccc(-n2c(-c3cnc(N4CCOCC4)nc3)cc3ccncc32)cc1 [Example 127, 4-{5-[1-(4-Chlorophenyl)-1H-pyrrolo[2,3-c]pyridin-2-yl]pyrimidin-2-yl}morpholine]	100 to 1000 nM	–
c1ccc(-n2c(-c3cnc(N4CCOCC4)nc3)cc3ccncc32)cc1 [Example 131, 4-(5-{1-Phenyl-1H-pyrrolo[2,3-c]pyridin-2-yl}pyrimidin-2-yl)morpholine]	1000 to 10000 nM	200 to 1200 nM
O=c1cc(-c2cc3ccncc3n2-c2ccc(Cl)cc2)ccn1C1CC1 [Example 138, 4-[1-(4-Chlorophenyl)-1H-pyrrolo[2,3-c]pyridin-2-yl]-1-cyclopropyl-1,2-dihydropyridin-2-one]	1000 to 10000 nM	–
Clc1ccc(-n2c(-c3cnc(NC4CCOCC4)nc3)cc3ccncc32)cc1 [Example 139, 5-[1-(4-Chlorophenyl)-1H-pyrrolo[2,3-c]pyridin-2-yl]-N-(oxan-4-yl)pyrimidin-2-amine]	100 to 1000 nM	–
Clc1ccc(-n2c(-c3ccc(CN4CCOCC4)nc3)cc3ccncc32)cc1 [Example 140, 4-({5-[1-(4-Chlorophenyl)-1H-pyrrolo[2,3-c]pyridin-2-yl]pyridin-2-yl}methyl)morpholine]	1000 to 10000 nM	–
O=c1cc(-c2cc3ccncc3n2-c2ccc(Cl)cc2)cc[nH]1 [Example 142, 4-[1-(4-Chlorophenyl)-1H-pyrrolo[2,3-c]pyridin-2-yl]-1,2-dihydropyridin-2-one]	1000 to 10000 nM	50 to 200 nM
Nc1cc(-c2cc3ccncc3n2-c2ccc(Cl)cc2)ccn1 [Example 147, 4-[1-(4-Chlorophenyl)-1H-pyrrolo[2,3-c]pyridin-2-yl]pyridin-2-amine]	1000 to 10000 nM	–
Fc1cnccc1-c1cc2ccncc2n1-c1ccc(Cl)cc1 [Example 152, 4-[1-(4-Chlorophenyl)-1H-pyrrolo[2,3-c]pyridin-2-yl]-3-fluoropyridine]	1000 to 10000 nM	200 to 1200 nM
Clc1ccc(-n2c(-c3ccncc3Cl)cc3ccncc32)cc1 [Example 153, 3-Chloro-4-[1-(4-chlorophenyl)-1H-pyrrolo[2,3-c]pyridin-2-yl]pyridine]	1000 to 10000 nM	50 to 200 nM
